Test results taken from patent publication US10280163B2 (BeiGene, Ltd., priority 2015, dated 2019).
Like-named read-outs stand apart in the source and are kept apart here.

How the values were obtained:
Recombinant IDO1 = target: T1, Recombinant IDO1 (Homo sapiens, UniProt P14902); assay: IDO1 enzymatic assay; format: biochemical
T1 construct: His tag (N); made in house; host or cells: E. coli
Summary of the method: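 N-terminally His-tagged enzyme from E. coli (50 nM) was incubated with compound, 1.3 mM D-tryptophan, 5 mM ascorbate, 6.25 μM methylene blue and 0.4 mg/mL catalase in 50 mM potassium phosphate pH 7.5, 0.1% BSA for 1.5 h at 24° C. N′-formylkynurenine formation was followed at 321 nm for 1 h; IC50 from rate slopes.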

Recombinant TDO = target: T2, Recombinant TDO (Homo sapiens, UniProt P48775); assay: TDO enzymatic assay; format: biochemical
T2 construct: His tag (C); made in house; host or cells: E. coli
T2 sequence (P48775 whole entry): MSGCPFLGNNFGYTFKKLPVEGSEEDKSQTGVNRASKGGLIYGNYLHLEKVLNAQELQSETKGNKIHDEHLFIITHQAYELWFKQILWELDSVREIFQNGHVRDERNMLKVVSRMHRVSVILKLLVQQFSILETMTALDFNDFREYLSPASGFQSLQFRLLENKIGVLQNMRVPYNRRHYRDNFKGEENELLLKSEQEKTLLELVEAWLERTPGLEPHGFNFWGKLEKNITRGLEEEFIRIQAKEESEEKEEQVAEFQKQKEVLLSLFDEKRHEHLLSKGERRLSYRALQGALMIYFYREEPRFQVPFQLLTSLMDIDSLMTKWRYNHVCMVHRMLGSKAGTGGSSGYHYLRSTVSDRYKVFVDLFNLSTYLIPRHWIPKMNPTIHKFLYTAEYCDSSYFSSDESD
Method: Recombinant TDO was overexpressed and purified from E. coli cells with a C-terminal His tag. TDO enzymatic assay was performed using the same methodology as IDO1 enzymatic assay except that 100 nM TDO and 0.5 mM L-tryptophan (Km concentration) were used in the TDO assay.

[1] = target: T3, cellular IDO1 in HeLa cells (Homo sapiens, UniProt P14902); assay: HeLa cell-based IDO1 Kyn (kynurenine) production assay; details: IFN-γ 100 ng/mL, 48 hours
T3 construct: endogenous in cells; host or cells: HeLa cells (American Type Tissue Culture Collection), induced with human recombinant IFN-γ
T3 sequence (P14902 whole entry): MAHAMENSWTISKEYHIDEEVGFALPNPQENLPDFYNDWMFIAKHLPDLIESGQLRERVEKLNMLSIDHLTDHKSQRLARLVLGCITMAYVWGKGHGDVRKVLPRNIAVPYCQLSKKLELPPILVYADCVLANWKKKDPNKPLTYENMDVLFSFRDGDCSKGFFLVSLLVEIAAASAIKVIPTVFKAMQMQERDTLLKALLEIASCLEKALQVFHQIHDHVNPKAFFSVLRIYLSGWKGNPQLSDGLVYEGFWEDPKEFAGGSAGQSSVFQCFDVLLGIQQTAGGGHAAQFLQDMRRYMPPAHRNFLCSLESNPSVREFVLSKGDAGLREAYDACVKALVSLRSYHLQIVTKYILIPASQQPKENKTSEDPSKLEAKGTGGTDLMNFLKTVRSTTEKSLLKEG
Summary of the method: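 IFN-γ-induced HeLa cells (100 ng/mL) in phenol red-free DMEM with 0.4 mM L-Trp, compounds added together with IFN-γ, 48 h at 37 °C. Supernatant Kyn read at 480 nm after TCA precipitation and 4-(dimethylamino)benzaldehyde reaction. IC50 from four-parameter logistic fit.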

[2] = selectivity examples, read-out: enzymatic IC50 value to IDO1
[3] = selectivity examples, read-out: enzymatic IC50 value to TDO
[4] = Table 1, 5-substituted imidazo[1,5-a]pyridines
[5] = Table 1, 5-substituted imidazo[1,5-a]pyridines, 50 nM IDO1, 1.3 mM D-tryptophan, read-out: Enzyme IC50 (nM) IDO1
[6] = Table 1, 5-substituted imidazo[1,5-a]pyridines, 100 nM TDO, 0.5 mM L-tryptophan, read-out: Enzyme IC50 (nM) TDO
[7] = Table 2, 8-substituted imidazo[1,5-a]pyridines, 50 nM IDO1, 1.3 mM D-tryptophan, read-out: Enzyme IC50 (nM) IDO1
[8] = Table 2, 8-substituted imidazo[1,5-a]pyridines, 100 nM TDO, 0.5 mM L-tryptophan, read-out: Enzyme IC50 (nM) TDO
[9] = Table 2, 8-substituted imidazo[1,5-a]pyridines

T1 sequence (P14902 whole entry): as above

Structure (SMILES) | IC50 (Recombinant IDO1; [2]) [nM] | IC50 (Recombinant TDO; [3]) [nM] | EC50 [1, 4] [nM] | IC50 (Recombinant IDO1; [5]) [nM] | IC50 (Recombinant TDO; [6]) [nM] | IC50 (Recombinant IDO1; [7]) [nM] | IC50 (Recombinant TDO; [8]) [nM] | EC50 [1, 9] [nM]
OC(CC1CCCCC1)c1c(Cl)ccc2cncn12 (stereo not drawn) [Example A117, 1-(6-chloroimidazo[1,5-a]pyridin-5-yl)-2-cyclohexylethan-1-ol] | 28 | 9700 | 143 |  |  |  |  | 
OC(c1c(Br)ccc2cncn12)C1CCCCC1 (stereo not drawn) [Example A118, (6-bromoimidazo[1,5-a]pyridin-5-yl)(cyclohexyl)methanol] |  |  | 420 | 15 | 5700 |  |  | 
OC(CC1CCCCC1)c1c(Br)ccc2cncn12 (stereo not drawn) [Example A119, 1-(6-bromoimidazo[1,5-a]pyridin-5-yl)-2-cyclohexylethan-1-ol] | 22 | 12000 | 511 |  |  |  |  | 
OC(c1c(Br)ccc2cncn12)C1CCCC1 (stereo not drawn) [Example A120, (6-bromoimidazo[1,5-a]pyridin-5-yl)(cyclopentyl)methanol] |  |  | 1410 | 37 | 3700 |  |  | 
Cc1ccc2cncn2c1C(O)C1CCCCC1 (stereo not drawn) [Example A122, cyclohexyl(6-methylimidazo[1,5-a]pyridin-5-yl)methanol] |  |  | 268 | 28 | 430 |  |  | 
C#Cc1ccc2cncn2c1C(O)C1CCCCC1 (stereo not drawn) [Example A123, cyclohexyl(6-ethynylimidazo[1,5-a]pyridin-5-yl)methanol] |  |  | 556 | 19 | 7900 |  |  | 
OC(CC1CCCCC1)c1c(I)ccc2cncn12 (stereo not drawn) [Example A124, 2-cyclohexyl-1-(6-iodoimidazo[1,5-a]pyridin-5-yl)ethan-1-ol] |  |  | 275 | 19 | 8700 |  |  | 
OC(c1c(I)ccc2cncn12)C1CCCCC1 (stereo not drawn) [Example A125, cyclohexyl(6-iodoimidazo[1,5-a]pyridin-5-yl)methanol] |  |  | 205 | 31 | 5600 |  |  | 
OC(c1c(C(F)(F)F)ccc2cncn12)C1CCCCC1 (stereo not drawn) [Example A126, cyclohexyl(6-(trifluoromethyl)imidazo[1,5-a]pyridine-5-yl)methanol] |  |  | 291 | 65 | 3100 |  |  | 
OC(CC1CCCCC1)c1c(C(F)(F)F)ccc2cncn12 (stereo not drawn) [Example A127, 2-cyclohexyl-1-(6-(trifluoromethyl)imidazo[1,5-a]pyridine-5-yl)ethan-1-ol] |  |  | 165 | 44 | 3500 |  |  | 
OC(CCC1CCCCC1)c1c(Cl)ccc2cncn12 (stereo not drawn) [Example A128, 1-(6-chloroimidazo[1,5-a]pyridin-5-yl)-3-cyclohexylpropan-1-ol] |  |  | 2160 | 46 | 1100 |  |  | 
OC(c1c(C2CC2)ccc2cncn12)C1CCCCC1 (stereo not drawn) [Example A129, cyclohexyl(6-cyclopropylimidazo[1,5-a]pyridin-5-yl)methanol] |  |  | 69.5 | 30 | 4700 |  |  | 
OC(c1c(-c2ccccc2)ccc2cncn12)C1CCCCC1 (stereo not drawn) [Example A130, cyclohexyl(6-phenylimidazo[1,5-a]pyridin-5-yl)methanol] |  |  | 9150 | 850 | 1700 |  |  | 
COc1ccc2cncn2c1C(O)C1CCCCC1 (stereo not drawn) [Example A131, cyclohexyl(6-methoxyimidazo[1,5-a]pyridin-5-yl)methanol] |  |  | 939 | 28 | 4100 |  |  | 
OC(c1c(C(F)(F)F)ccc2cncn12)C1CCCC1 (stereo not drawn) [Example A133, cyclopentyl(6-(trifluoromethyl)imidazo[1,5-a]pyridin-5-yl)methanol] |  |  | 2040 | 58 | 36000 |  |  | 
OC(c1c(I)ccc2cncn12)C1CC1 (stereo not drawn) [Example A134, cyclopropyl(6-iodoimidazo[1,5-a]pyridin-5-yl)methanol] |  |  | 8610 | 59 | 26000 |  |  | 
CC(C)c1ccc2cncn2c1C(O)C1CCCCC1 (stereo not drawn) [Example A135, cyclohexyl(6-isopropylimidazo[1,5-a]pyridin-5-yl)methanol] |  |  | 54 | 39 | 2700 |  |  | 
C=C(C)c1ccc2cncn2c1C(O)C1CCCCC1 (stereo not drawn) [Example A136, cyclohexyl(6-(prop-1en-2-yl)imidazo[1,5-a]pyridin-5-yl)methanol] |  |  | 1610 | 30 | 3300 |  |  | 

Structure (SMILES) | IC50 (Recombinant IDO1; [2]) [nM] | IC50 (Recombinant TDO; [3]) [nM] | EC50 [1, 4] [nM] | IC50 (Recombinant IDO1; [5]) [nM] | IC50 (Recombinant TDO; [6]) [nM] | IC50 (Recombinant IDO1; [7]) [nM] | IC50 (Recombinant TDO; [8]) [nM] | EC50 [1, 9] [nM]
OC(c1c(C2CC2)ccc2cncn12)C1CCCC1 (stereo not drawn) [Example A138, cyclopentyl(6-cyclopropylimidazo[1,5-a]pyridin-5-yl)methanol] |  |  | 418 | 25 | 6600 |  |  | 
OC(CC1CCCCC1)c1c(C2CC2)ccc2cncn12 (stereo not drawn) [Example A139] |  |  | 435 | 35 | 2400 |  |  | 
Cc1noc(C)c1-c1ccc2cncn2c1C(O)C1CCCCC1 (stereo not drawn) [Example A140, cyclohexyl(6-(3,5-dimethylisoxazol-4-yl)imidazo[1,5-a]pyridin-5-yl)methanol] |  |  | 7810 | 10000 | 17000 |  |  | 
OC1CCCCC1C(O)c1c(C2CC2)ccc2cncn12 (stereo not drawn) [Example A141, 2-((6-cyclopropylimidazo[1,5-a]pyridin-5-yl)(hydroxy)methyl)cyclohexan-1-ol] |  |  | 3150 | 51 | 3900 |  |  | 
OC1CCC(C(O)c2c(C3CC3)ccc3cncn23)CC1 (stereo not drawn) [Example A142, 4-((6-cyclopropylimidazo[1,5-a]pyridin-5-yl)(hydroxy)methyl)cyclohexan-1-ol] |  |  | 574 | 130 | 64000 |  |  | 
OC(c1c(Cl)c(Cl)cc2cncn12)C1CCCCC1 (stereo not drawn) [Example A143, cyclohexyl(6,7-dichloroimidazo[1,5-a]pyridin-5-yl)methanol] |  |  | 1110 | 15 | 270 |  |  | 
OC(CC1CCCCC1)c1c(Cl)c(Cl)cc2cncn12 (stereo not drawn) [Example A144, 2-cyclohexyl-1-(6,7-dichloroimidazo[1,5-a]pyridin-5-yl)ethan-1-ol] |  |  | 1240 | 32 | 1500 |  |  | 
OC(c1cc(Cl)c(Cl)c2cncn12)C1CCCCC1 (stereo not drawn) [Example A146, cyclohexyl(7,8-dichloroimidazo[1,5-a]pyridin-5-yl)methanol] |  |  | 1250 | 28 | 210 |  |  | 
OC(c1c(Cl)c(Br)cc2cncn12)C1CCCCC1 (stereo not drawn) [Example A148, (7-bromo-6-chloroimidazo[1,5-a]pyridin-5-yl)(cyclohexyl)methanol] |  |  | 1490 | 39 | 420 |  |  | 
OC(c1c(Cl)c(Br)cc2cncn12)C1CCCC1 (stereo not drawn) [Example A149, (7-bromo-6-chloroimidazo[1,5-a]pyridin-5-yl)(cyclopentyl)methanol] |  |  | 2060 | 35 | 160 |  |  | 
OC(c1c(Cl)c(F)cc2cncn12)C1CCCCC1 (stereo not drawn) [Example A151, (6-chloro-7-fluoroimidazo[1,5-a]pyridin-5-yl)(cyclohexyl)methanol] |  |  | 415 | 39 | 600 |  |  | 
OC(CC1CCCCC1)c1c(Cl)c(F)cc2cncn12 (stereo not drawn) [Example A152, 1-(6-chloro-7-fluoroimidazo[1,5-a]pyridin-5-yl)-2-cyclohexylethan-1-ol] |  |  | 202 | 33 | 7400 |  |  | 
COc1cc(C(O)C2CCCCC2)n2cncc2c1Cl (stereo not drawn) [Example A153, (8-chloro-7-methoxyimidazo[1,5-a]pyridin-5-yl)(cyclohexyl)methanol] |  |  | 6760 | 500 | 1800 |  |  | 
OC(c1c(Cl)c(Cl)c(Cl)c2cncn12)C1CCCCC1 (stereo not drawn) [Example A154, cyclohexyl(6,7,8-trichloroimidazo[1,5-a]pyridin-5-yl)methanol] |  |  | 657 | 430 | 8400 |  |  | 
OC(c1c(F)c(Cl)cc2cncn12)C1CCCCC1 (stereo not drawn) [Example A156, (7-chloro-6-fluoroimidazo[1,5-a]pyridin-5-yl)(cyclohexyl)methanol] |  |  | 1650 | 48 | 190 |  |  | 
OC(c1cccn2cncc12)C1CCCCC1 (stereo not drawn) [Example B001, Cyclohexyl(imidazo[1,5-a]pyridin-8-yl)methanol] |  |  |  |  |  | 1000 | 630 | > 10000
OC(CC1CCCCC1)c1cccn2cncc12 (stereo not drawn) [Example B006, 2-Cyclohexyl-1-(imidazo[1,5-a]pyridin-8-yl)ethan-1-ol] |  |  |  |  |  | 330 | 3300 | > 10000
OC(CCC1CCCCC1)c1cccn2cncc12 (stereo not drawn) [Example B008, 3-cyclohexyl-1-(imidazo[1,5-a]pyridin-8-yl)propan-1-ol] |  |  |  |  |  | 620 | 17000 | > 10000
